These results are taken from paper PMC8457749, “Design, Synthesis, and Anticancer Activity Evaluation of Hybrids of Azoles and Barbituric Acids” (Iranian Journal of Pharmaceutical Research : IJPR, 2021).

The structures appear in SMILES notation.

One data set concerns MCF-7 cells. Briefly: MTT antiproliferative assay, MCF-7. To be noted: for inhibition at 100 µM / IC50: Homo sapiens, MCF7, 48 h; for inhibition at 100 µM: read-out: Growth Inhibition at 100 μM (%) MCF-7; for IC50: read-out: IC50 MCF-7; for Selectivity index MCF-7: IC50 on normal cells (L02)/IC50 on tumor cells (MCF-7). It counts as cell-based, human. The method, then: (§1) The antiproliferative activity of the target compounds against the panel of three different human cancer cell lines, liver (BEL-7402), colorectal (HCT-116), and breast (MCF-7) cell lines was evaluated using a standard MTT-based colorimetric assay. All cell lines were obtained from the Key Laboratory of Natural Resources and Functional Molecules of the Changbai Mountain (Yanbian University) and maintained in Dulbecco’s modified Eagle’s medium (DMEM) and RPMI Media 1640 (RPMI1640), supplemented with 10% foetal bovine serum (FBS) at 37 °C in a humidified atmosphere containing 5% CO2.
(§2) The cells were plated in 96-well plates at appropriate densities to ensure exponential growth throughout the experimental period (9 × 10^3 cells per well) and then allowed to adhere for 24 h. the cells were then treated for 48 h with each compound. After 48 h of incubation, 10 μL of MTT solution was added to each well to a final concentration of 2 mg/mL. the plates were then incubated for a further 4 h. After incubation, the MTT solution was removed and 150 μL of DMSO was added to each well for coloration. The plates were shaken vigorously for 10 min at room temperature to ensure complete solubilisation. The optometric density (OD) was read on a microplate reader (EL × 800, BioTek, Highland Park, Winooski, VT, USA) at 492 nm, and the data were subsequently analysed. The percentage of cell growth inhibition was calculated from the following Equation:
(§3) Inhibitory rate (%) = [1 − (ODtreated − ODblank)/(ODcontrol − ODblank)] × 100%
(§4) To obtain the antiproliferative activity of compounds 3a-3s and 4a-4d, the compounds were selected in the same way with four serial concentrations (1, 10, 50 and 100 μM) of those compounds. The optometric density (OD) reading was then used to calculate the IC50.
A general note: Tetrazolium dyes change colour on reduction, which living cells bring about.

A further data set concerns HCT-116 cells. Briefly: MTT antiproliferative assay, HCT-116. The class given is cell-based, human. To be noted: for inhibition at 100 µM / IC50: Homo sapiens, HCT-116, 48 h; for inhibition at 100 µM: read-out: Growth Inhibition at 100 μM (%) HCT-116; for IC50: read-out: IC50 HCT-116; for Selectivity index HCT-116: IC50 on normal cells (L02)/IC50 on tumor cells (HCT-116). The procedure:
as §1, §2, §3, §4

Data set [1] relates to BEL-7402 cells. Description: MTT antiproliferative assay, BEL-7402. The class given is cell-based, human. To be noted: for inhibition at 100 µM / IC50: Homo sapiens, Bel-7402, 48 h; for inhibition at 100 µM: read-out: Growth Inhibition at 100 μM (%) BEL-7402; for IC50: read-out: IC50 BEL-7402; for Selectivity index BEL-7402: IC50 on normal cells (L02)/IC50 on tumor cells (BEL-7402). The procedure: as §1, §2, §3, §4

A further data set concerns L02 cells. Description: Antiproliferative activity against normal cell line L02. The class given is cell-based. To be noted: Homo sapiens, L02, read-out: L02 IC50. The method, then:
The lack of selective cytotoxicity is the main factor that restricts the dose of most conventional chemotherapeutic agents ([21]). […] Selectivity indexes between cancer cells and L02 cells were calculated.

Data set [2] relates to BEL-7402 cells. Description: Apoptosis by flow cytometry (annexin V-FITC/PI). It counts as cell-based, human. To be noted: 24 h. The procedure: Apoptosis was detected using an Apoptosis Detection Kit (Invitrogen, Eugene, OR, USA). Briefly, BEL-7402 cells were cultured in 6-well plates (1.0 × 10^6 cells per well) and incubated at 37 °C for 12 h. Cells with exponential growth were then incubated with compound 3s at different concentrations (5 μM and 20 μM). Following 24 h of incubation, the cells were collected, washed twice with PBS and once with 1 × binding buffer, and then stained with 5 […] and […] (5 mg/mL) in 1 × binding buffer for 30 min at 20 °C in the dark. Apoptotic cells were enumerated using a FACSCalibur flow cytometer with Cell Quest software (Becton–Dickinso, Franklin Lakes, NJ, USA).
(In general: A flow cytometer gives signals particle by particle.)

The subject of the next data set is HCT116 cancer cells. On the set-up: method as in PMID 30981113. To be noted: HCT116 cancer cells ref 11; read-out: IC50 anti-proliferative activity HCT116; cited from earlier work.
The next data set concerns MCF-7 cell line. On the set-up: method as in earlier work. To be noted: cited from earlier work.
The next data set deals with HCT116 cell line. On the set-up: method as in earlier work. To be noted: cited from earlier work.

For the compound `O=C1NC(=O)C(=Cc2cn(-c3cccc(F)c3)nn2)C(=O)N1` [Compound 3c, 5-((1-(3-fluorophenyl)-1H-1,2,3-triazol-4-yl)methylene)pyrimidine-2,4,6(1H,3H,5H)-trione], the melting point (commonly the temperature of the solid-liquid transition) is 250 °C. In addition, in the data set on MCF-7 cells, the inhibition (in general, how much of the control response was suppressed) at 100 µM was determined as 34.6 ± 1.8% and the IC50 (in general, the point on the concentration scale where inhibition reaches its midpoint) is greater than 100 µM. In the data set with HCT-116 cells, the inhibition at 100 µM came to 48.4 ± 2.3% and the IC50 is greater than 100 µM. In addition, in the data set with BEL-7402 cells [1], the inhibition at 100 µM was 79 ± 3.9%, the IC50 was 12.2 ± 0.91 µM and the “Selectivity index BEL-7402” value is reported as 6.74. Further, the concentration for half-maximal inhibition (IC50) with L02 cells stood at 82.3 ± 4 µM.
For the compound `O=C1NC(=O)C(=Cc2cn(-c3cccc(Cl)c3)nn2)C(=O)N1` [Compound 3f, 5-((1-(3-chlorophenyl)-1H-1,2,3-triazol-4-yl)methylene)pyrimidine-2,4,6(1H,3H,5H)-trione], the melting point worked out at 250 °C. In the data set with MCF-7 cells, the inhibition at 100 µM was determined as 58 ± 3.2%, the half-maximal inhibitory concentration (IC50) was determined as 29.1 ± 0.34 µM and the “Selectivity index MCF-7” value came to 3.22. Besides, in the data set on HCT-116 cells, the inhibition at 100 µM was 79.3 ± 5.6%, the half-inhibitory concentration (IC50) is 14.9 ± 0.55 µM and the “Selectivity index HCT-116” value was found to be 6.28. In the data set on BEL-7402 cells [1], the inhibition at 100 µM was 75.2 ± 3%, the 50% inhibitory concentration (IC50) was determined as 15.9 ± 1.32 µM and the “Selectivity index BEL-7402” value came to 5.89. In the data set on L02 cells, the IC50 is 93.9 ± 5.9 µM.
`O=C1NC(=O)C(=Cc2cn(-c3ccc(Cl)cc3)nn2)C(=O)N1` [Compound 3g, 5-((1-(4-chlorophenyl)-1H-1,2,3-triazol-4-yl)methylene)pyrimidine-2,4,6(1H,3H,5H)-trione] returned a melting point of 250 °C. Besides, in the data set with MCF-7 cells, the inhibition at 100 µM came to 23.9 ± 2.9% and the IC50 was greater than 100 µM. Moreover, in the data set with HCT-116 cells, the inhibition at 100 µM was 68.5 ± 4.6%, the IC50 came to 9.59 ± 1.01 µM and the “Selectivity index HCT-116” value came out at 8.36. In the data set on BEL-7402 cells [1], the inhibition at 100 µM was 46.6 ± 4.6% and the 50% inhibitory concentration (IC50) is greater than 100 µM. Also, the 50% inhibitory concentration (IC50) in the data set on L02 cells is 80.2 ± 6 µM.
Consider `O=C1NC(=O)C(=Cc2cn(-c3cc(Cl)ccc3Cl)nn2)C(=O)N1` [Compound 3h, 5-((1-(2,5-dichlorophenyl)-1H-1,2,3-triazol-4-yl)methylene)pyrimidine-2,4,6(1H,3H,5H)-trione], for which the melting point came out at 250 °C. Further, in the data set with MCF-7 cells, the inhibition at 100 µM turned out to be 92.2 ± 8.5%, the IC50 stood at 75.9 ± 1.98 µM and the “Selectivity index MCF-7” value was 1.04. In addition, in the data set on HCT-116 cells, the inhibition at 100 µM turned out to be 81.2 ± 4.2%, the half-inhibitory concentration (IC50) worked out at 18.9 ± 1.97 µM and the “Selectivity index HCT-116” value worked out at 4.17. Further, in the data set on BEL-7402 cells [1], the inhibition at 100 µM is 82.1 ± 3.2%, the concentration for half-maximal inhibition (IC50) worked out at 9.49 ± 1.78 µM and the “Selectivity index BEL-7402” value was found to be 8.30. Further, in the data set on L02 cells, the 50% inhibitory concentration (IC50) worked out at 78.8 ± 3.9 µM.
`O=C1NC(=O)C(=Cc2cn(-c3cccc(Br)c3)nn2)C(=O)N1` [Compound 3k, 5-((1-(3-bromophenyl)-1H-1,2,3-triazol-4-yl)methylene)pyrimidine-2,4,6(1H,3H,5H)-trione] returned a melting point of 250 °C. Besides, in the data set with MCF-7 cells, the inhibition at 100 µM turned out to be 31.7 ± 2.8% and the half-maximal inhibitory concentration (IC50) was greater than 100 µM. Also, in the data set with HCT-116 cells, the inhibition at 100 µM was 88.9 ± 3.1%, the half-inhibitory concentration (IC50) was determined as 19.4 ± 1.67 µM and the “Selectivity index HCT-116” value is 3.42. Further, in the data set with BEL-7402 cells [1], the inhibition at 100 µM came to 81.6 ± 3.6%, the IC50 is 19.2 ± 1.8 µM and the “Selectivity index BEL-7402” value was found to be 3.46. Further, the IC50 in the data set on L02 cells worked out at 66.4 ± 5.1 µM.
Consider `O=C1NC(=O)C(=Cc2cn(-c3ccc(C(F)(F)F)cc3)nn2)C(=O)N1` [Compound 3s, 5-((1-(4-(trifluoromethyl)phenyl)-1H-1,2,3-triazol-4-yl)methylene)pyrimidine-2,4,6(1H,3H,5H)-trione], for which, in the data set on BEL-7402 cells [2] (5 μM), the “early-stage apoptosis rate (LR)” value is on record as 1.33% and the “late-stage apoptosis rate (UR)” value is reported as 4.94%. In the data set on BEL-7402 cells [2] (20 μM), the “dead cells (UL)” value came to 27.40%, the “early-stage apoptosis rate (LR)” value turned out to be 3.37% and the “late-stage apoptosis rate (UR)” value is on record as 35.78%. In the data set on MCF-7 cells, the inhibition at 100 µM worked out at 90.4 ± 5.3%, the concentration for half-maximal inhibition (IC50) is 8.98 ± 0.99 µM and the “Selectivity index MCF-7” value was 9.15. Also, in the data set on HCT-116 cells, the inhibition at 100 µM stood at 62.9 ± 1.9%, the half-maximal inhibitory concentration (IC50) was 21.5 ± 1.19 µM and the “Selectivity index HCT-116” value was 3.82. Also, in the data set with BEL-7402 cells [1], the inhibition at 100 µM is 95.3 ± 4.9%, the IC50 was found to be 4.02 ± 0.5 µM and the “Selectivity index BEL-7402” value is 20.45. Further, in the data set on L02 cells, the IC50 was found to be 82.2 ± 4.8 µM.
Take `C=C1C(=O)[C@]23[C@H](OC(=O)c4cn(-c5ccc(OC)cc5)nn4)[C@H]1CC[C@H]2[C@@]12CO[C@]3(O)[C@@H](O)[C@@H]1C(C)(C)CC[C@@H]2O` [Compound C]: in the data set with HCT116 cancer cells, the IC50 is 1.94 µM.
With `CC1=NN=C(C)C1=NNc1sc2c(c1C(N)=O)CCCCC2` [D], the IC50 was 22.7 µM in the data set on MCF-7 cell line and 31.1 µM in the data set on HCT116 cell line.
On to `C=C1C(=O)[C@]23[C@H](O)[C@H]1CC[C@H]2[C@@]12CO[C@]3(O)[C@@H](O)[C@@H]1C(C)(C)CC[C@@H]2O` [oridonin], for which the IC50 in the data set with HCT116 cancer cells was 6.84 µM.
